Laboratory results taken from patent US7053188B2, “Monoclonal antibodies specific for neoplasia-specific NADH:disulfide reductase” (Purdue Research Foundation, priority 2002, dated 2006).
Values belong to the molecule of their own block, whether it stands above or below them.

What was measured:
[1] = system: NADH oxidase of HeLa plasma membranes; settings: background statement; cited from earlier work
tTIP [2] = experiment: Direct assay of tTIP activity of HeLa plasma membranes with DTNA substrate; format: biochemical, human; settings: no antibody
[3] = system: NADH oxidase of normal sera; experiment: NADH oxidase (NOX) activity of pooled sera of normal volunteers; format: biochemical, human
Procedure: (§1) Pooled sera. Pooled sera were collected from the patient population of the Michiana Hematology-Oncology Clinic, South Bend, Ind. and from the patient population of St. Elizabeth Hospital of Lafayette, Ind. Only cancer patients with active disease (Stage III or Stage IV) were identified at the time of collections. Sera were frozen after collection and stored frozen at −20° C. Prior to assay, samples were thawed and maintained at 4° C. between thawing and assay.
(§2) Spectrophotometric tNOX Assay. NADH oxidase activity was determined as the disappearance of NADH measured at 340 nm with 430 nm as reference using an SLM Aminco (Lake Forest, Calif.) DW-2000 spectrophotometer in the dual wavelength mode of operation or a Hitachi (Tokyo, Japan) U3210 spectrophotometer at 340 nm with continuous recording over 5 or 10 min intervals once steady-state rates were obtained. The reaction mixture contained 50 mM Tris-Mes buffer (pH 7.0), 2 mM KCN to inhibit any potential mitochondrial oxidase activity, and 150 μM NADH in a total volume of 2.5 ml. Assay was at 37° C. with constant stirring. With purified fractions, 1 μM reduced glutathione was added to reduce the protein in the presence of substrate and human serum albumin, 0.1 mg/ml, as a protein source of thiols. After 10 min, 0.03% hydrogenperoxide was added (or oxidized glutathione) to reoxidize the protein under renaturing conditions and in the presence of substrate to start the reaction. A millimolar extinction coefficient of 6.22 was used to determine NADH disappearance. To determine capsaicin inhibition, capsaicin in DMSO was added to a final concentration of 1 μM (0.1% DMSO) and the rate of NADH oxidation determined over 10 min. Capsaicin at a final concentration of 100 μM (0.2% DMSO) was then added and the assay was continued for an additional 10 min.
(§3) NADH oxidase activity can also be measured using an Hitachi (Tokyo, Japan) U3210 spectrophotometer over 5 min intervals at 37° C. The activity was determined as the disappearance of NADH measured at 340 nm. […]

tTIP [4] = experiment: tTIP activity of sera of cancer patients, dithio-dipyridyl substrate; format: biochemical, human; settings: Breast CA sera, without MAB 12.1
Description: An alternative assay procedure is the use of a dithio-dipyridyl substrate as described in Morré et al. (1999) Mol. Cell. Biochem. 207:7-13.

[5] = system: NADH oxidase of HeLa plasma membranes; experiment: NADH oxidase activity of HeLa S plasma membranes; format: biochemical, human; settings: 37° C.
Procedure: as §2

tNOX [6] = experiment: NADH oxidase (NOX) activity of pooled sera of cancer patients; format: biochemical, human; settings: no MAB
Procedure: as §1
Spectrophotometric tNOX Assay. NADH oxidase activity was determined as the disappearance of NADH measured at 340 nm with 430 nm as reference using an SLM Aminco (Lake Forest, Calif.) DW-2000 spectrophotometer in the dual wavelength mode of operation or a Hitachi (Tokyo, Japan) U3210 spectrophotometer at 340 nm with continuous recording over 5 or 10 min intervals once steady-state rates were obtained. […] To determine capsaicin inhibition, capsaicin in DMSO was added to a final concentration of 1 μM (0.1% DMSO) and the rate of NADH oxidation determined over 10 min. […]
as §3

tNOX [7] = experiment: Immunoprecipitation of tNOX with MAB 12.1, supernatant activity assayed; format: biochemical, human; settings: Preimmune
Procedure: Spectrophotometric tNOX Assay. NADH oxidase activity was determined as the disappearance of NADH measured at 340 nm with 430 nm as reference using an SLM Aminco (Lake Forest, Calif.) DW-2000 spectrophotometer in the dual wavelength mode of operation or a Hitachi (Tokyo, Japan) U3210 spectrophotometer at 340 nm with continuous recording over 5 or 10 min intervals once steady-state rates were obtained. The reaction mixture contained 50 mM Tris-Mes buffer (pH 7.0), 2 mM KCN to inhibit any potential mitochondrial oxidase activity, and 150 μM NADH in a total volume of 2.5 ml. Assay was at 37° C. with constant stirring. With purified fractions, 1 μM reduced glutathione was added to reduce the protein in the presence of substrate and human serum albumin, 0.1 mg/ml, as a protein source of thiols. After 10 min, 0.03% hydrogenperoxide was added (or oxidized glutathione) to reoxidize the protein under renaturing conditions and in the presence of substrate to start the reaction. A millimolar extinction coefficient of 6.22 was used to determine NADH disappearance. To determine capsaicin inhibition, capsaicin in DMSO was added to a final concentration of 1 μM (0.1% DMSO) and the rate of NADH oxidation determined over 10 min. Capsaicin at a final concentration of 100 μM (0.2% DMSO) was then added and the assay was continued for an additional 10 min. Immunoprecipitation. […]

[8] = cells incubated in 0.1 M sodium acetate, pH 5, 2 h
[9] = cells incubated in PBS, pH 7, 2 h

Structure (SMILES): Cc1ccc(S(=O)(=O)NC(=O)Nc2ccc(Cl)cc2)cc1 [LY181984]
ability of HeLa plasma membrane vesicles to oxidize NADH (in words) [1]: partially inhibited

Km (tTIP [2]): 1500 µM
Structure (SMILES): O=C(O)c1ccc(SSc2ccc(C(=O)O)cn2)nc1 [DTNA, 6,6′-dithionicotinic acid]
VMAX (tTIP [2]; estimated): 1.5 nmoles/min/mg protein

Structure (SMILES): COc1cc(CNC(=O)CCCC/C=C/C(C)C)ccc1O [capsaicin, 8-methyl-N-vanillyl-6-noneamide]
NADH oxidation by pooled sera from normal patients (in words) ([3]; capsaicin 1 to 100 μM): not inhibited
NOX activity of sera, +1 μM Cap ([3]; normal sera, no MAB, 1 μM capsaicin): 0.7 ± 0.14
NOX activity of sera, + μM Cap ([3]; normal sera, no MAB, capsaicin (concentration not given)): 0.7 ± 0.16
Capsaicin inhibition (tTIP [4]): −0.6
NADH oxidase activity, 1 μM capsaicin [5, 8]: 0.2 ± 0.01 nmoles/min/mg plasma membrane protein
NADH oxidase activity, 100 μM capsaicin [5, 8]: 0.15 ± 0.02 nmoles/min/mg plasma membrane protein
NADH oxidase activity, 1 μM capsaicin [5, 9]: 0.2 ± 0.02 nmoles/min/mg plasma membrane protein
NADH oxidase activity, 100 μM capsaicin [5, 9]: 0.2 ± 0.02 nmoles/min/mg plasma membrane protein
ability of HeLa plasma membrane vesicles to oxidize NADH (in words) [1]: partially inhibited
NOX activity of sera, +1 μM Cap (tNOX [6]; 1 μM capsaicin): 1.0 ± 0.13
NOX activity of sera, + μM Cap (tNOX [6]; capsaicin (concentration not given)): 1.0 ± 0.17
Supernatant activity, 1 μM capsaicin (tNOX [7]; 1 μM capsaicin): 0.6 ± 0.4 nmoles/min/100 μl serum
Supernatant activity, 100 μM capsaicin (tNOX [7]; 100 μM capsaicin): 0.5 nmoles/min/100 μl serum
